Data taken from patent EP1075277B2, “METHODS FOR DETECTING AND INHIBITING ANGIOGENESIS” (The Regents of the University of California, priority 1998, dated 2012).
“Also recorded” adds a separate entry of the source.

Key:
[1] = test system: integrin α5β1 positive cells, including α5β1 HT29 colon carcinoma cells, CEF's, and HUVEC's; experiment: Cell adhesion assay on fibronectin, results in words for the α5β1 positive cells together; format: cell-based; conditions: antibodies 50 µg/ml, cyclic peptides 10 µM, SJ749 0-10 µM
Text: (§1) HT29 integrin α5β1 cells, integrin α5β1 colon carcinoma cells (Varner et al., Mol. Biol. Cell 6:725-740 (1995)), and chick embryo fibroblasts (CEF's) were maintained in DMEM high glucose supplemented with 10% fetal bovine serum (FBS) and gentamycin. Human umbilical vein endothelial cells (HWEC's) were maintained in M199 medium containing sodium bicarbonate, HEPES, heparin, endothelial cell growth supplement, 20% FBS and gentamycin. Culture media and reagents were from Irvine Scientific (Irvine, CA).
(§2) The wells of 48 well culture dishes (Costar, Inc.) were coated with 1 µg/ml vitronectin, 2 µg/ml fibronectin (chick embryo fibroblasts and HUVEC's) or 10 µg/ml fibronectin (HT29-α5^+ cells) for 1 hr at 37°C, then blocked with 2% heat denatured BSA in PBS for 1 hr. […]
(§3) Cells were allowed to adhere to dishes for 20 min at 37°C. […] Crystal violet was extracted by incubation for 15 min in 10% acetic acid and absorbance at 562 nm determined as an indicator of number of cells bound. […]

[2] = test system: α5β1 HT29 colon carcinoma cells, CEF's, and HUVEC's; experiment: Cell adhesion assay on vitronectin; format: cell-based; conditions: 1 µg/ml vitronectin coat
Text: as §1, §2, §3

[3] = test system: blood vessel branch points in chorioallantoic membranes (CAM's); experiment: In ovo chick chorioallantoic membrane (CAM) angiogenesis assay; format: in vivo; conditions: for effect on bFGF-induced angiogenesis (in words): bFGF stimulated CAM
Text: Ten day old embryonated chicken eggs (McIntyre Poultry; Ramona CA) were candled to illuminate blood vessels under the shell and an area with a minimum of small blood vessels is identified. The CAM was dropped away from the eggshell in this area by grinding a small hole in the mineralized shell and applying pressure to the underlying inner shell membrane. This procedure caused an air pocket to shift from the wide end of the egg to the identified area and forcing a circular region of the CAM approximately 2 cm in diameter to drop away from the shell. A window was cut in the egg shell and a cortisone acetate pre-treated filter disc 5 mm in diameter that had been saturated in 1 µg/ml bFGF, VEGF, TNFα, IL-8 (Genzyme, Inc.; Cambridge MA) or saline was placed on the CAM. The window in the shell was sealed with adhesive tape and the egg was incubated for four days.
Anti-fibronectin antibodies (25 µg in 25 µl) also were applied topically to the CAM.
Fibronectin, vitronectin and fibronectin fragments (59 pmol in a final volume of 25 µl) were applied to stimulated or unstimulated CAM's. Peptide or small molecule antagonists of α5β1 (at a final serum concentration of 0-25 µM) also were injected intravenously into the chick circulation 24 hr later. CAM's were harvested on the fourth day of stimulation. Blood vessel branch points in the 5 mm filter disk area were counted at 30 X magnification in a blinded fashion as a size-independent quantitative indicator of vascular sprouting in response to growth factors. Angiogenesis is characterized by the sprouting of new vessels in response to growth factors. Thus, counting of blood vessel branch points is a useful quantitative means of obtaining an angiogenic index (Brooks et al., In "Methods in Molecular Biology" (Humana Press 1999). At least ten embryos were used per treatment group. Each experiment was performed a minimum of three times.
Data was evaluated in terms of average number of blood vessel branch points per treatment group +/- standard error of measurement. Statistical analyses were performed using Student's t-test. […]

α5^+ HT29 cells = experiment: Cell adhesion assay on fibronectin, HT29-α5+ cells; format: cell-based; conditions: Homo sapiens, HT-29, 0-10 µM SJ749, Figure 1, read-out: half maximal inhibitory concentration, adhesion to fibronectin
Text: as §1, §2, §3

HUVEC's = experiment: Cell migration assay (transwell); format: cell-based, human; conditions: 4 hr at 37°C
Description: The Lower side of 8 µm pore transwell inserts (Costar, Inc.) were coated with 2 µg/ml of fibronectin, collagen (Collaborative Biomedical Products; Bedford MA) or no protein for 1 hr and were blocked with 2% BSA in PBS for 1 hr. The inserts then were placed into 24 well culture dishes containing 500 µl migration buffer in the lower chamber. Twenty-five thousand HUVEC's in 50 µl of migration buffer (HEPES buffered M199 medium containing 1% BSA, 2 mM MgCl2, 2 mM CaCl2 and 0.2 mM MnCl2) were added to the upper chamber of duplicate inserts containing 50 µl of a solution of 50 µg/ml of anti-α5β1 function blocking antibody (NKI-SAM-1, JBS5 or IIA1), 50 µ/ml of anti-α5β1 non-function blocking antibody (HA5 or VC5), or 50 µg/ml of LM609 (an anti-αVβ3 function blocking antibody) in migration buffer, or migration buffer alone.
Cells were allowed to migrate from the upper to the lower chamber for 4 hr at 37°C. Nonmigratory cells were removed from the upper surface by wiping the upper side with an absorbant tip, and cells that had migrated to the lower side of the transwell insert were fixed for 15 min with 3.7% paraformaldehyde in PBS, then stained with a 2% crystal violet solution. After extensive water washing to remove excess crystal violet, the number of cells that had migrated were counted in three representative high power (200X) fields per insert. […]

[4] = target: T1, α5β1 receptor purified from human placenta (Homo sapiens, UniProt P05556+P08648); experiment: Integrin receptor ligand binding assay, α5β1 / fibronectin; conditions: biotinylated fibronectin
T1 construct: α5β1 receptor purified from human placenta; purchased Chemicon International; host or cells: human placenta (tissue-purified)
T1 sequence (P08648 42-894 limits assumed): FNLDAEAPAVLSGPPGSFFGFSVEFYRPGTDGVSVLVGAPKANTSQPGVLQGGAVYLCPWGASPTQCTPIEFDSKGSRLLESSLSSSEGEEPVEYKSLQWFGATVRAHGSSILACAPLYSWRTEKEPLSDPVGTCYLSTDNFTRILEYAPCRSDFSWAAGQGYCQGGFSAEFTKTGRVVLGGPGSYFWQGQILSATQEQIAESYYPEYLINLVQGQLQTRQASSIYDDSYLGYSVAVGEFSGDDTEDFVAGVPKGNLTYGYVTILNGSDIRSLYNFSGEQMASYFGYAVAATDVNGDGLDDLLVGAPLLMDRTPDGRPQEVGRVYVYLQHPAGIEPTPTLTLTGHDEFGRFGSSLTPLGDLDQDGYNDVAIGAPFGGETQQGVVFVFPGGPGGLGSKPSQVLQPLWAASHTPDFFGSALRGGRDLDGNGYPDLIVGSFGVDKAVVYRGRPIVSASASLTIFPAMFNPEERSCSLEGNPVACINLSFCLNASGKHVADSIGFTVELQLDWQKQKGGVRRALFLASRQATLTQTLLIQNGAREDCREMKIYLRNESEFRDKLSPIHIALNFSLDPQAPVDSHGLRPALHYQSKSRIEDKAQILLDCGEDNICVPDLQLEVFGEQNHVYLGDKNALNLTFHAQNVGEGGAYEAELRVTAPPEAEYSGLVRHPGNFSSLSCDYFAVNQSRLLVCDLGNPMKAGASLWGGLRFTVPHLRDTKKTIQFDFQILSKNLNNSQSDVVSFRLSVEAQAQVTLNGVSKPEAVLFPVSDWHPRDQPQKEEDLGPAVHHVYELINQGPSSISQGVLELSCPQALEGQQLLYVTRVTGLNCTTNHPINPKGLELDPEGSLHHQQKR
T1 sequence (P08648 895-1049 partner limits assumed): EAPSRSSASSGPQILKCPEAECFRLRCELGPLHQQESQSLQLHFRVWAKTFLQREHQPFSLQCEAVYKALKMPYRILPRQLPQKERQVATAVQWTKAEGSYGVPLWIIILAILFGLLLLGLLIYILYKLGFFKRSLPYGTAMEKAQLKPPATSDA
T1 sequence (P05556 21-798): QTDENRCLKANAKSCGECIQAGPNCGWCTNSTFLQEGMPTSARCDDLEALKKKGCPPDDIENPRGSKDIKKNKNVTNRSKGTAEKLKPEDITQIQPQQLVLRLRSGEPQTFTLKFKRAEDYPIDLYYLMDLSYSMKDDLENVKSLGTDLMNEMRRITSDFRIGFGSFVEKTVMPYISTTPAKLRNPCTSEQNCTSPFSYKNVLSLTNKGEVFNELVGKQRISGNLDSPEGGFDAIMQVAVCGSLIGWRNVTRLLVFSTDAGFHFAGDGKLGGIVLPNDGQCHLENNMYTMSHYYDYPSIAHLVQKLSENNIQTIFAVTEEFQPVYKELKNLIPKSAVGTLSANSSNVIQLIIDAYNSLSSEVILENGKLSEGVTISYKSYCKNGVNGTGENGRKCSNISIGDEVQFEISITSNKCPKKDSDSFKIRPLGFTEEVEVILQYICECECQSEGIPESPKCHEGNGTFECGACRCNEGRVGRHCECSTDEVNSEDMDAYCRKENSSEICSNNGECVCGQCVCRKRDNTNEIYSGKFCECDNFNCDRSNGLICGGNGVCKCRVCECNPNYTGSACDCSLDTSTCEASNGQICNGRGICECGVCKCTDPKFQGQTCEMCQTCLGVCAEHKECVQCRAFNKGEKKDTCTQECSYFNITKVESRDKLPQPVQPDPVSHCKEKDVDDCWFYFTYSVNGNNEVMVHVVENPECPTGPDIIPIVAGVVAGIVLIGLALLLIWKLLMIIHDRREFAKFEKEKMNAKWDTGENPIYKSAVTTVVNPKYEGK
Description: (§4) Integrin αVβ3 and α5β1 receptor purified from human placenta were obtained from Chemicon International. Platelet integrin αIIbβ3 was purified from platelets according to established procedures. Receptors were coated (100 µl/well) on Costar (3590) high capacity binding plates overnight at 4°C. Coating solution was discarded and plates were washed once with blocking/binding (B/B) buffer (50 mM Tris HCl, pH 7.4, 100 mM NaCl, 2mM CaCl2, 1 mM MgCl2, 1 mM MnCl2 and 1% BSA).
(§5) One hundred ten microliters of B/B buffer was applied for 60 min at RT. Thirty µl of biotinylated extracellular matrix protein ligand (fibronectin for integrin α5β1, vitronectin for integrin αVβ3 and fibrinogen for integrin αIIbβ3) plus 50 µl of either SJ749 in B/B buffer or B/B buffer alone were added to each well, and incubated for 25 min at RT. Plates were washed twice with B/B buffer and incubated 1 hr at RT, with anti-biotin alkaline phosphatase (100 µl/well) in B/B buffer. Finally, plates were washed twice with B/B followed by the addition of 100 µl of phosphatase substrate (1.5 mg/ml). Reaction was stopped by adding 2N NaOH (25 µl/well), and the developed color was read at 405 nm.

Integrin αVβ3 = target: T2, Integrin αVβ3 (Homo sapiens, UniProt P05106+P06756); experiment: Integrin receptor ligand binding assay, αVβ3 / vitronectin; conditions: biotinylated vitronectin for αVβ3
T2 construct: Integrin αVβ3 and α5β1 receptor purified from human placenta; purchased Chemicon International; host or cells: human placenta (tissue-purified, as the sentence is read)
T2 sequence (P06756 31-889 limits assumed): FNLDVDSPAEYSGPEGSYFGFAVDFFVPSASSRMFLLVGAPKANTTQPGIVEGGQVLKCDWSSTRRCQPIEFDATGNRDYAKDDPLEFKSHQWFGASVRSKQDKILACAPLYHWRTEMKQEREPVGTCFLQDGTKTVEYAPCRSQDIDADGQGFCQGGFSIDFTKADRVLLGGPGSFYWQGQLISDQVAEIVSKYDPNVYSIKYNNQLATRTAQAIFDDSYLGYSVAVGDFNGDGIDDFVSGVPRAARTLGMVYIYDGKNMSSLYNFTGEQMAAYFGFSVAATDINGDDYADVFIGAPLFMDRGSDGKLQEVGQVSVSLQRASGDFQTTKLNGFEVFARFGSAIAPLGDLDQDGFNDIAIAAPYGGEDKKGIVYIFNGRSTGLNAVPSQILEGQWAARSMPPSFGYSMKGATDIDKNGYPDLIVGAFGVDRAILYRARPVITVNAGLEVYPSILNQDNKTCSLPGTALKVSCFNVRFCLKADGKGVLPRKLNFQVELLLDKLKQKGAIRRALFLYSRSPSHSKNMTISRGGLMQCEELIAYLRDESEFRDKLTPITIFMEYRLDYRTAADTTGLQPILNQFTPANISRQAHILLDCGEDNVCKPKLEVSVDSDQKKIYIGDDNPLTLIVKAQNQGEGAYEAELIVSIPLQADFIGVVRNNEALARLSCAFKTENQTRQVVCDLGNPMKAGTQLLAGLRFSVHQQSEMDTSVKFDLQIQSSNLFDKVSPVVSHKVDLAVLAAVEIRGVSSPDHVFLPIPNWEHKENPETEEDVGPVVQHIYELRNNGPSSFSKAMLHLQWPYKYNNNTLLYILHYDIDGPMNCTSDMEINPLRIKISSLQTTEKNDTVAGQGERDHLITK
T2 sequence (P06756 891-1048 partner limits assumed): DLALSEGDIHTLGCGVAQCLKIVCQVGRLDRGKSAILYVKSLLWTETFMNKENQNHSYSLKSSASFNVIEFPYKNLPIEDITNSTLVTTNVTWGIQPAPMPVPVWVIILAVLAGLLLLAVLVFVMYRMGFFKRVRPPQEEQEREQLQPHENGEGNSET
T2 sequence (P05106 27-788): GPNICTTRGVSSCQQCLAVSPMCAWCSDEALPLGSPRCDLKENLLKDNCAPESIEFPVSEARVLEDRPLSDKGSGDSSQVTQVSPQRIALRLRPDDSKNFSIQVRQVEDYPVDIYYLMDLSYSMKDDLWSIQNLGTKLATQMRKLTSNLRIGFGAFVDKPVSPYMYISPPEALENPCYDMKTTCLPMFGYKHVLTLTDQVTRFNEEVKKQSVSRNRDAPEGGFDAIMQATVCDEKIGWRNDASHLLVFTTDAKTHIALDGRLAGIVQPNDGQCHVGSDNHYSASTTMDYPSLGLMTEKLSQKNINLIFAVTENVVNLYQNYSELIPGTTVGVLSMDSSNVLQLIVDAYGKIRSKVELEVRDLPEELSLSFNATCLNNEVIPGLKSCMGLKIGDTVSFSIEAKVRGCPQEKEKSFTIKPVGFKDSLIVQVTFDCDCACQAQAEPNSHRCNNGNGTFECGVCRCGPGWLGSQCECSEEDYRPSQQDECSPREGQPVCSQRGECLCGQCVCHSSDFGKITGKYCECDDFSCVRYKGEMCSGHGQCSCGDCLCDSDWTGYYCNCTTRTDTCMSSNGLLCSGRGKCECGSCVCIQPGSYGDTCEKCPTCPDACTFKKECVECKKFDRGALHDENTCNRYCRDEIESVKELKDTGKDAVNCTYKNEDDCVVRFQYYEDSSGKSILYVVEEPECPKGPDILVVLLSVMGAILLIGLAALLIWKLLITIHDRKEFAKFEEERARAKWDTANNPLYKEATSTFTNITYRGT
Description: as §4, §5

[5] = test system: HT29 colon carcinoma cells lacking α5β1 expression; experiment: Chick CAM tumor assay, HT29; format: in vivo; conditions: antibody 25 µg topically; for effect on tumor size (in words): peptide or small molecule 25 µM intravenously
Description: The chick CAM tumor assay was performed by placing ten million tumor cells on the surface of a CAM, and culturing the cells for one week. The resulting tumors were excised and cut into 50 mg fragments. […] Forty-eight hours later, CAM's were excised from the egg and the number of blood vessels entering the tumors were counted (as vessel branch points) .
Data was presented as mean blood vessel number per treatment group (+/- standard error of measurement). Each treatment group incorporated at least ten tumors per experiment. Representative tumors were photographed at 10X magnification. Tumors were excised from the egg and tumor weights were determined for each tumor. Data was presented as mean tumor weight per treatment group (+/- standard error of measurement). Statistical analyses were performed using Student's t-test.
HT29 colon carcinoma cells lacking α5β1 expression were grown on the CAM's of 10-day old embryos. These tumor cells secrete several angiogenic growth factors, including VEGF, TGFα, TGFβ, TNFα, and IL-8 (Anzano et al., Cancer Res. 49:2898-2904 (1989); Varner et. al., supra, 1995; Ellis et al., J. Biol. Chem. 273:1052-1057 (1998)). Integrin α5β1 negative tumor cells were used to distinguish the potential anti-tumor effects from anti-vasculature effects of integrin α5β1 antagonists.

| Molecule | effect on cell adhesion to fibronectin (in words) [1] | effect on cell attachment to vitronectin (in words) [2] | effect on VEGF-induced angiogenesis (in words) ([3]; VEGF stimulated CAM) | effect on bFGF-induced angiogenesis (in words) [3] | IC50 (α5^+ HT29 cells) [nM] | effect on endothelial cell migration on fibronectin (in words) (HUVEC's) | effect on endothelial cell migration on other matrix proteins, including collagen (in words) (HUVEC's) | effect on ligand binding to α5β1 (in words) [4] | effect on ligand binding to αVβ3 and other integrins (in words) (Integrin αVβ3) | tumors smaller than control treated tumors ([5]; peptide or SJ749 25 µM final serum concentration intravenously) [%] | effect on tumor size (in words) [5] |
| --- | --- | --- | --- | --- | --- | --- | --- | --- | --- | --- | --- |
| Cc1cc(C)c(S(=O)(=O)N[C@@H](CNC(=O)C2=NOC3(C2)CC(CNc2ccccn2)N(C(=O)OCc2ccccc2)C3)C(=O)O)c(C)c1 (stereo partly drawn) [SJ749] | blocked the adhesion of these cells to fibronectin in a concentration-dependent manner; also recorded: inhibitory effect | ineffective in blocking cell attachment to vitronectin or other extracellular matrix ligands | did not block VEGF angiogenesis | blocked bFGF-induced angiogenesis on chick CAM's in a dose-dependent manner when applied either topically or systemically; also recorded: dose dependent inhibitory effect; also recorded: reduced or inhibited angiogenesis in a dose dependent manner | 800 | highly effective in blocking endothelial cell migration on fibronectin | but not on other matrix proteins such as collagen | selectively inhibited ligand binding to α5β1; also recorded: interfered with α5β1 binding to fibronectin | substantially less effective in blocking ligand binding to αVβ3 and other integrins | 51 | induced tumor regression on the CAM |
| CATAERWRC | little effect on cell adhesion to either fibronectin or vitronectin | little effect on cell adhesion to either fibronectin or vitronectin | – | did not inhibit angiogenesis | – | – | – | – | – | – | continued to increase in size |
